Assay type in all cases: cell-based, mouse
Experiment [1] concerns α7 integrin (LacZ reporter in α7βgal+/− myoblasts). Kind of experiment: Myoblast α7+/LacZ integrin FDG assay (Burkin assay in myoblasts, 96-well). To be noted: 96-well; for Burkin Assay in Myoblasts, signal relative to DMSO: α7+/LacZ myoblasts; for Burkin Assay in Myoblasts, value relative to DMSO: SU9516 analogs, N=3-6.
The subject of experiment [2] is β-galactosidase in CMV-LacZ C2C12 myotubes. Kind of experiment: CMV-LacZ secondary screen in C2C12 myotubes (β-Gal stabilizing assay). As to conditions: for CMV-LACZ in Myotubes, signal relative to DMSO: C2C12 CMV-LacZ myotubes, fold relative to DMSO; for CMV-LACZ in Myotubes, value relative to DMSO: SU9516 analogs, C2C12 CMV-LacZ, N=2. An outline of the steps: (§1)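 β-Gal level was the read-out, measured in a clonal C2C12 line expressing LacZ from a CMV promoter. Dose-response curves used six concentrations, 0.5 μM up to 40 μM, with duplicate points.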

The subject of experiment [3] is β-galactosidase in CMV-LacZ C2C12 myoblasts. Kind of experiment: CMV-LacZ secondary screen in C2C12 myoblasts (β-Gal stabilizing assay). To be noted: for CMV-LACZ in Myoblasts (β-galactosidase activity relative to DMSO): CMV-LacZ C2C12 myoblasts; for CMV-LACZ in Myoblasts, value relative to DMSO: SU9516 analogs, C2C12 CMV-LacZ, N=2. In a few lines:
as §1

Experiment [4] relates to α7 integrin (LacZ reporter in α7+/LacZ myotubes). The experiment in a line: Myotube α7 integrin FDG assay (Burkin assay in myotubes, 96-well). To be noted: for Burkin Assay in Myotubes, value relative to DMSO: SU9516 analogs, 96-well, N=3-6.

Five molecules from patent US9980943B2, “Methods of treating muscular dystrophy” (BOARD OF REGENTS OF THE NEVADA SYSTEM OF HIGHER EDUCATION, …, priority 2013, dated 2018) can be followed below.

SMILES strings stand for the structures.

Take `CCOC(=O)c1cc(-c2cccs2)nc2c1c(C)nn2-c1ccccn1` [MLS001006516-01]: the “Burkin Assay in Myoblasts, signal relative to DMSO” value in experiment [1] (0.5 uM) came out at 1.097; in experiment [1] (1 uM) it was 1.134; in experiment [1] (5 uM), 0.8796; in experiment [1] (10 uM) it was 0.7932; in experiment [1] (20 uM), 0.6928; in experiment [1] (40 uM), 0.4802. For the same molecule, the “CMV-LACZ in Myotubes, signal relative to DMSO” value in experiment [2] (0.5 uM) turned out to be 0.9581; in experiment [2] (1 uM) it was 0.9257; in experiment [2] (5 uM), 0.9283; in experiment [2] (10 uM), 0.8542; in experiment [2] (20 uM), 0.9032; in experiment [2] (40 uM) it was 0.9484. Besides, the “CMV-LACZ in Myoblasts (β-galactosidase activity relative to DMSO)” value was 1.0038 in experiment [3] (0.5 uM); 0.8858 in experiment [3] (1 uM); 0.9829 in experiment [3] (5 uM); 0.9076 in experiment [3] (10 uM); 0.4956 in experiment [3] (20 uM); 0.6589 in experiment [3] (40 uM). For the same molecule, the “Burkin Assay in Myotubes, α7 integrin LacZ reporter signal relative to DMSO” value in experiment [4] (0.5 uM) worked out at 0.9261; in experiment [4] (1 uM) it was 0.8714; in experiment [4] (5 uM), 0.9257; in experiment [4] (10 uM), 0.9085; in experiment [4] (20 uM), 0.7127; in experiment [4] (40 uM) it was 0.7127.
`CCc1ccc(S(=O)(=O)NCCOc2cccc3cccnc23)cc1` [MLS001034810-01]: the “Burkin Assay in Myoblasts, signal relative to DMSO” value is 1.021 in experiment [1] (0.5 uM); 0.9975 in experiment [1] (1 uM); 1.375 in experiment [1] (5 uM); 1.191 in experiment [1] (10 uM); 0.8996 in experiment [1] (20 uM); 0.8407 in experiment [1] (40 uM). Besides, the “CMV-LACZ in Myotubes, signal relative to DMSO” value in experiment [2] (0.5 uM) is recorded as 1.1000; in experiment [2] (1 uM), 1.7389; in experiment [2] (5 uM) it was 0.9578; in experiment [2] (10 uM) it was 1.0965; in experiment [2] (20 uM), 1.0578; in experiment [2] (40 uM), 1.1344. Besides, the “CMV-LACZ in Myoblasts (β-galactosidase activity relative to DMSO)” value in experiment [3] (0.5 uM) came out at 0.9698; in experiment [3] (1 uM), 0.9538; in experiment [3] (5 uM) it was 1.0948; in experiment [3] (10 uM) it was 0.9459; in experiment [3] (20 uM), 1.1193; in experiment [3] (40 uM), 0.7030. The “Burkin Assay in Myotubes, α7 integrin LacZ reporter signal relative to DMSO” value in experiment [4] (0.5 uM) is 1.035; in experiment [4] (1 uM), 1.07; in experiment [4] (5 uM) it was 1.403; in experiment [4] (10 uM), 1.165; in experiment [4] (20 uM) it was 1; in experiment [4] (40 uM), 0.7593.
Turning to `CCN(CC)CCNC(=O)c1c(C)[nH]c(/C=C2\C(=O)Nc3ccc(F)cc32)c1C` [NCGC00164631-04], the “Burkin Assay in Myoblasts, value relative to DMSO” value in experiment [1] (0.5 uM) was determined as 1.023; in experiment [1] (1 uM), 1.011; in experiment [1] (5 uM), 0.529; in experiment [1] (10 uM), 0.08696; in experiment [1] (20 uM), 0.01476; in experiment [1] (40 uM) it was 0.01361. In addition, the “CMV-LACZ in Myotubes, value relative to DMSO” value came to 1.1336 in experiment [2] (0.5 uM); 0.9164 in experiment [2] (1 uM); 0.8803 in experiment [2] (5 uM); 0.3804 in experiment [2] (10 uM); 0.6490 in experiment [2] (20 uM); 0.6690 in experiment [2] (40 uM). In addition, the “CMV-LACZ in Myoblasts, value relative to DMSO” value in experiment [3] (0.5 uM) is 0.8225; in experiment [3] (5 uM), 0.6842; in experiment [3] (10 uM), 0.4405; in experiment [3] (20 uM), 0.2323; in experiment [3] (40 uM) it was 0.1827. For the same molecule, the “Burkin Assay in Myotubes, value relative to DMSO” value in experiment [4] (0.5 uM) is 0.9761; in experiment [4] (1 uM) it was 0.9998; in experiment [4] (5 uM), 0.7739; in experiment [4] (10 uM) it was 0.2132; in experiment [4] (20 uM), 0.08218; in experiment [4] (40 uM), 0.08093.
For `CCc1nc2ccccc2c(C(=O)NCc2ccccc2)c1C` [MLS000688267-01], the “Burkin Assay in Myoblasts, signal relative to DMSO” value was found to be 1.092 in experiment [1] (0.5 uM); 1.104 in experiment [1] (1 uM); 1.358 in experiment [1] (5 uM); 0.9133 in experiment [1] (10 uM); 1.0466 in experiment [1] (20 uM); 1.107 in experiment [1] (40 uM). The “CMV-LACZ in Myotubes, signal relative to DMSO” value was 0.8648 in experiment [2] (0.5 uM); 1.1333 in experiment [2] (1 uM); 0.9634 in experiment [2] (5 uM); 1.2248 in experiment [2] (10 uM); 0.9505 in experiment [2] (20 uM); 1.1505 in experiment [2] (40 uM). The “CMV-LACZ in Myoblasts (β-galactosidase activity relative to DMSO)” value was 1.0950 in experiment [3] (0.5 uM); 1.1579 in experiment [3] (1 uM); 0.9129 in experiment [3] (5 uM); 0.8935 in experiment [3] (10 uM); 1.1407 in experiment [3] (20 uM); 1.0774 in experiment [3] (40 uM). Also, the “Burkin Assay in Myotubes, α7 integrin LacZ reporter signal relative to DMSO” value was found to be 0.9011 in experiment [4] (0.5 uM); 0.8373 in experiment [4] (1 uM); 1.132 in experiment [4] (5 uM); 1.101 in experiment [4] (10 uM); 0.8808 in experiment [4] (20 uM); 1.131 in experiment [4] (40 uM).
Take `CCOC(=O)C1=C(CC)Nc2ccccc2N=C1NC(=O)c1ccc(OC)c(S(=O)(=O)N2CCCCC2C)c1` (centres unmarked) [MLS000776409-01]: the “Burkin Assay in Myoblasts, signal relative to DMSO” value in experiment [1] (0.5 uM) is 1.1194; in experiment [1] (1 uM), 1.007; in experiment [1] (5 uM), 0.9389; in experiment [1] (10 uM) it was 0.9838; in experiment [1] (20 uM), 0.5087; in experiment [1] (40 uM) it was 0.3444. In addition, the “CMV-LACZ in Myotubes, signal relative to DMSO” value in experiment [2] (0.5 uM) is 1.0552; in experiment [2] (1 uM), 0.9752; in experiment [2] (5 uM) it was 1.0186; in experiment [2] (10 uM), 1.1035; in experiment [2] (20 uM), 1.1040; in experiment [2] (40 uM), 1.1540. For the same molecule, the “CMV-LACZ in Myoblasts (β-galactosidase activity relative to DMSO)” value amounted to 1.1220 in experiment [3] (0.5 uM); 0.9103 in experiment [3] (1 uM); 0.8929 in experiment [3] (5 uM); 0.9052 in experiment [3] (10 uM); 1.3344 in experiment [3] (20 uM); 0.2105 in experiment [3] (40 uM). Moreover, the “Burkin Assay in Myotubes, α7 integrin LacZ reporter signal relative to DMSO” value is listed as 0.8925 in experiment [4] (0.5 uM); 1.029 in experiment [4] (1 uM); 0.882 in experiment [4] (5 uM); 0.9284 in experiment [4] (10 uM); 0.8949 in experiment [4] (20 uM); 0.8056 in experiment [4] (40 uM).
